Literature values, collected in patent US8101207B2, “Composition containing medicine extremely slightly soluble in water and method for preparation thereof” (Kowa Co., Ltd., priority 2003, dated 2012).

Key:
[1] = test system: interleukin-1β; settings: known from Japanese Patent Application Laid-Open (kokai) No. 12-198776

solubility in water: very low solubility
SMILES: CSc1ccc(-c2nn(Cc3ccccc3)c(=O)cc2-c2ccc(Cl)cc2)cc1 [Compound A, 2-benzyl-5-(4-chlorophenyl)-6-[4-(methylthio)phenyl]-2H-pyridazin-3-one]
effect of inhibiting production of interleukin-1β [1]: excellent effect
